Data from patent US20250325535A1, “IDENTIFICATION OF NOVEL SMALL-MOLECULE INHIBITORS OF SARS-CoV-2 BY CHEMICAL GENETICS” (The University of Hong Kong, priority 2024, published 2025).
pIC50: −log10 of the molar value.

Key:
in vitro = format: cell-based; settings: African green monkey
Procedure: (§1) FIG. 9. MTT cytotoxicity assays of SMART™ finalized hits compounds on VeroE6 cells. VeroE6 cells are treated with compounds of interest diluted from 100 μM to 0.78 μM in a 2-fold interval and incubate for 72 hours.
(§2) Briefly, cells are seeded onto a 96-well plate at a density of 20,000 cells per well one day before treatment. On the following day, compounds of interest are added to the cells in gradient concentrations and incubated at 37° C. with 5% CO2 for either 48 or 96 hours. After medium removal, 100 μL of 1×MTT solution in plain DMEM is added to the cells and incubated at 37° C. with 5% CO2 for 3-4 hours. Then, MTT lysis buffer (10% SDS/10 mM HCl) is added to the cells and incubated at room temperature for 3-4 hours. Cell viability is measured in absorbance (OD595) using a plate reader (Glomax, Promega).

VeroE6 cells = assay: in vitro; format: cell-based; settings: African green monkey, 72 h, 100 μM
Procedure: as §1, §2

Wild Type SARS-CoV-2 = assay: Golden Syrian hamster experiment; format: in vivo
HCoV-229E = format: cell-based
Caco-2 cells = format: in vitro ADME
Procedure: Caco-2 cells are seeded onto 0.4 μm pore polycarbonate membranes (PC) in 96-well Corning Insert plates at a density of 3.5×10^4 cells/cm2.HBSS with 10.0 mM HEPES at pH 7.40±0.05 as the transport buffer. The compound is subjected to bidirectional testing in triplicate at 2.00 μM. The plate is incubated in a CO2 incubator with 5% CO2 at 37.0° C. and saturated humidity for two hours without shaking. All samples are centrifuged at 3220 g for 10 minutes after being combined with acetonitrile containing internal standard. Using the peak area ratio of the analyte/internal standard, LC-MS/MS techniques are used to quantify the concentrations of the compound in the beginning solution, donor solution, and recipient solution. Following transportation, lucifer yellow rejection assay is applied to determine the Caco-2 cell monolayer integrity.
For data analysis, Permeability (Papp), efflux ratio and Percent recovery are calculated using the following equations: […]

[1] = test system: recombinant WT SARS-CoV-2; assay: microbe, parasite or virus in culture; format: cell-based; settings: for pIC50: Severe acute respiratory syndrome coronavirus 2, recombinant WT virus, read-out: IC50 (plaque formation assay)
[2] = Balb/c mouse, single intraperitoneal 5 mg/kg
SARS-CoV = format: cell-based
MERS-CoV = format: cell-based
[3] = format: in vitro ADME, CD-1 mouse or human; settings: microsomes
Procedure: Mouse and Human Liver Microsomes are respectively provided by RILD and coming. They are collected from CD-1 mouse or human and prepared in 100 mM potassium phosphate buffer. […] Aliquots are sampled at 0, 5, 15, 30, 45, and 60 min for LC-MS/MS analysis.

[4] = test system: 44 selected host targets including 24 GPCRs, 8 ion channels, 7 enzymes, 3 monoamine transporters, and 2 nuclear hormone receptors; settings: 10 μM

Cc1ccc(C2C3=C(CC(c4ccccc4)CC3=O)NC3=C2C(=O)c2ccccc23)cc1 (stereo not shown) [Compound 172, 10-(4-methylphenyl)-7-phenyl-6,7,8,10-tetrahydro-5H-indeno[1,2-b]quinoline-9,11-dione]
CC50 at 72 h (in vitro): > 100000 nM | cell viability in MTT assay (VeroE6 cells): over 90% | viral yield reduction in lung and nasal turbinate vs control group (Wild Type SARS-CoV-2; 1 mg/kg IP at 12-hour intervals, day 3): 1 log 10 | viral RNA reduction in supernatant (HCoV-229E): more than 3 log 10 | permeability (Caco-2 cells): moderate | pIC50 [1]: 5.41 | Cmax [2]: 6.89 µM | reduction of SARS-CoV viral load (SARS-CoV): 1 log 10 | reduction in normalized expression of N gene in cell lysate (MERS-CoV): > 5 log10 | metabolic stability [3]: moderate | off-target effects on host proteins [4]: no significant off-target effects

CC(C)(C)[C@H](NC(=O)C(F)(F)F)C(=O)N1C[C@H]2[C@@H]([C@H]1C(=O)N[C@H](C#N)C[C@@H]1CCNC1=O)C2(C)C [Nirmatrelvir]
protection (viral yield reduction) in animal lungs (Wild Type SARS-CoV-2; Nirmatrelvir 200 mg/kg IP, Pelitinib oral 10 mg/kg, 12-hour intervals): > 4 log 10 | pIC50 [1]: 7.74

CCOc1cc2ncc(C#N)c(Nc3ccc(F)c(Cl)c3)c2cc1NC(=O)/C=C/CN(C)C [Pelitinib]
protection (viral yield reduction) in animal lungs (Wild Type SARS-CoV-2; in vivo): marginal | pIC50 [1]: 5.79 | inhibition of virus replication ([1]; WT virus): dose-dependent inhibition of WT virus replication
